From patent publication US20130178517A1, “Methods And Compositions For Treatment Of Lipogenic Virus Related Conditions” (priority 2010, published 2013)
Entries after “also recorded” stand apart in the source; their conditions may differ.

Legend:
Ad-36 [1] = assay: TCID50 of A549 cells exposed to Ad-36; type: cell-based, human adenovirus 36 in human A549 cells
Experimental: “TCID50” refers to 50% tissue culture infective dose (TCID50), an endpoint dilution assay that quantifies the amount of virus required to kill 50% of infected hosts or to produce a cytopathic effect in 50% of inoculated tissue culture cells.
The experimental conditions were assessed: (A) Control condition in which cells were infected with the virus throughout incubation, no luteolin added; (B) Cells and virus were both pretreated with luteolin, then the cells were incubated with both the virus and luteolin; and (C) Cells pretreated with luteolin only, luteolin removed, then cells incubated with virus but without luteolin. The TCID50 value was calculated for each group.

[2] = tested on: MCF-10A cells infected with Ad-36; assay: Growth rate (cell count) of MCF-10A cells infected with Ad-36; type: cell-based, human; conditions: 5 μM
Experimental: FIG. 11 is a graph showing that luteolin reduces the growth rate of MCF-10A cells infected with Ad-36. […] Over a time course, cells were trypsinized and counted using a hemocytometer. As illustrated, ⋄ refers to mock infected cells incubated without luteolin; □ refers to mock infected cells treated with luteolin; Δ refers to Ad-36-infected cells incubated without luteolin; and × refers to Ad-36-infected cells treated with luteolin.
Luteolin reduces the growth rate of […] (MCF-10A) that have been infected with Ad-36 in tissue culture (FIG. 11). MCF-10A cells were infected with a multiplicity of infection (MOI) of 0.5 at day 0 for 2 hours, then replaced with fresh medium containing 5 μM luteolin or vehicle. At each time period, cells were trypsinzed and counted using a hemocytometer. Fresh luteolin (5 μM) was added on day 0 (after infection), day 3 and day 5 in order to insure a constant concentration of agent. […] The cells infected with Ad-36 and not exposed to luteolin had the highest growth rate, faster than cells without Ad-36. When luteolin is added, cell growth is slowed.

[3] = tested on: phosphorylated Akt in MCF-10A cells; assay: Akt phosphorylation (Western blot) in MCF-10A cells with or without Ad-36 infection; type: cell-based, human
Experimental: MCF-10A cells were infected with Ad-36 and treated with luteolin and/or metformin, then Akt phosphorylation was measured using Western blot. The top band is phosphorylated Akt. […] Lane 2 is MCF-10A cells infected with Ad-36 virus. Lane 3 is metformin, MCF-10A cells infected with Ad-36 virus. Lane 4 is uninfected MCF-10A cells treated with metformin. Lane 5 is MCF-10A cells infected with Ad-36 virus and treated with luteolin. Lane 6 is uninfected MCF-10A cells treated with luteolin. Lane 7 is MCF-10A cells infected with Ad-36 and treated with a combination of metformin and luteolin. Lane 8 is uninfected MCF-10A cells treated with a combination of metformin and luteolin.

Ad-36 [4] = assay: Replication of Ad-36 in A549 cells assessed by cytopathic effect (CPE); type: cell-based, human adenovirus 36 in human A549 cells; conditions: multiple different doses, 100 TCID/well, CPE 3 and 4 days post-infection
Experimental: A549 cells were infected with a fixed amount of Ad-36 (100 TCID/well) for 2 hours, then media containing the virus was removed, replaced with serial dilutions of metformin, luteolin, or a combination. Cytopathic effect (CPE) was evaluated 3 days and 4 days post-infection (PI). Each condition had 8 wells. The efficacy of the different drug treatments was evaluated by determining whether there were fewer wells with CPE as compared to the control condition for the different treatment conditions, which reflected the degree to which a particular treatment was working to inhibit the virus.

[5] = tested on: FAS protein in MCF-7 cells infected with Ad-36; assay: FAS protein expression (Western blot) in MCF-7 cells infected with Ad-36; type: cell-based, human; conditions: Ad-36-infected MCF-7 cells; for FAS protein expression: vs infected untreated control; for amount of FAS protein: range of 10 uM/L to 100 uM/L (FIG. 8)
Experimental: MCF-7 cells were incubated with Adv36 and a range of 10 uM/L to 100 uM/L of Didox or Tridox.
Human breast cancer cells (MCF-7) were infected with Ad-36 virus and treated with antiviral compounds Didox or Tridox. MCF-7 cells were incubated with Ad-36 and a range of about 10 μM/L to about 100 μM/L of Didox or Tridox. The control for the experiments was MCF-7 cells infected with Ad-36 that were not treated with an antiviral compound. Fifty micrograms of protein was loaded per lane on an SDS-PAGE gel, followed by Western blot analysis detecting FAS.

[6] = tested on: FAS protein in 3T3-L1 cells; assay: FAS protein expression (Western blot) in 3T3-L1 preadipocyte cells with MDI and Ad-36; type: cell-based, mouse; conditions: for FAS protein as dosage is increased: 3T3-L1 preadipocyte cells (FIG. 9 as described)
Experimental: The effects of Tridox on FAS protein expression were evaluated in 3T3-L preadipocyte cells. Control cells were maintained without exposure to Ad-36 or to the differentiation cocktail of methyl-isobutyl-xanthine, dexamethasone, and insulin (MDI). See, e.g., Ntambi and CheulKim, J. Nutrition, 120: […] for description of MDI differentiation cocktail.

Ad-36 in preadipocytes = conditions: preadipocytes in tissue culture; cited from earlier work
[7] = MCF-10A cells infected with Ad-36 and treated
[8] = uninfected MCF-10A cells treated

Compound	Akt phosphorylation [3, 7]	Akt phosphorylation [3, 8]	effect of Ad-36 on A549 cells (CPE, replication) (Ad-36 [4])	FAS protein expression ([5]; about 50 μM)	FAS protein expression ([5]; about 100 μM)	amount of FAS protein [5]	FAS protein as dosage is increased [6]	also measured
O=c1cc(-c2ccc(O)c(O)c2)oc2cc(O)cc(O)c12 [luteolin]	marked reduction	stimulated	inhibits	–	–	–	–	virulence of Ad-36 infection / Ad-36 infection (Ad-36 [1]; A549 cells, overall conclusion): blocks virulence; also recorded: inhibits Ad-36 infection; TCID50 value (Ad-36 [1]; Group B: cells and virus pretreated with luteolin, then cells incubated with virus and luteolin, vs control): slightly higher than control; TCID50 value (Ad-36 [1]; Group C: cells pretreated with luteolin only, luteolin removed, then incubated with virus): lowest and low; TCID value (Ad-36 [1]; second experiment (not shown), same condition as Group B, vs control): increased almost twice as much as the control value; growth rate (cell number) ([2]; Ad-36-infected (MOI 0.5) MCF-10A cells): slowest growth rate; also recorded: slow growth rate; cell growth when compound is added ([2]; MCF-10A cells): slowed
NC(=NO)c1cc(O)c(O)c(O)c1 [Tridox, 3,4,5 trihydroxybenzamidoxime]	–	–	–	decrease	decrease	decreased	decreased	FAS protein expression ([5]; about 10 μM): decrease; infection with Ad-36 (conclusion from FAS data) ([6]; 3T3-L1 cells): inhibits infection with Ad-36; FAS protein levels ([6]; 3T3-L1 cells exposed to Ad-36 in media containing 10 μM): even lower; FAS expression ([6]; 3T3-L1 cells infected with Ad-36, then incubated with MDI and 10 μM): modest decrease; FAS expression ([6]; 3T3-L1 cells pretreated with compound, then incubated with MDI and Ad-36): more marked decrease; also recorded: greater decrease
O=C(NO)c1ccc(O)c(O)c1 [Didox, 3,4 dihydrobezohydoxamic acid]	–	–	–	decrease	decrease	decreased	decreased	–
Nc1ccn(C[C@@H](CO)OCP(=O)(O)O)c(=O)n1 [Cidofovir]	–	–	–	–	–	–	–	lipogenic effect of Ad-36 (Ad-36 in preadipocytes): block the lipogenic effect
CN(C)C(=N)N=C(N)N [metformin]	marked reduction	stimulated	inhibits	–	–	–	–	–
